Laboratory results as given in PMC4651778 (Journal of structural biology, 2015).

Experiments:
[1] = target: Liver Receptor Homolog-1 (LRH-1, NR5A2) (Homo sapiens, UniProt O00482); experiment: crystal structure; type: binding
DAX-1 140-154 = target: T1, DAX-1 140-154 (Homo sapiens, UniProt P51843); experiment: SPR
T1 chain: PRQGSILYSLLTSSK

Liver Receptor Homolog-1 (LRH-1, NR5A2), sequence (O00482 294-541): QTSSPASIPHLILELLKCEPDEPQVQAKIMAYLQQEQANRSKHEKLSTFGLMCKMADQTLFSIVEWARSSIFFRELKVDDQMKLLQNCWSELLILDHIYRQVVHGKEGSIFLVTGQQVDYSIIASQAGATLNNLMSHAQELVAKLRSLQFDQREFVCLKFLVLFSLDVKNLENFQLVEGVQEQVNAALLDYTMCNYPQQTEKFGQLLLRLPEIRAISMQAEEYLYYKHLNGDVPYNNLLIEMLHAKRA

CCCCCCCCCCCCCCCC(=O)OC[C@@H](COP(=O)(O)O[C@H]1[C@H](O)[C@@H](OP(=O)(O)O)[C@H](OP(=O)(O)O)[C@@H](OP(=O)(O)O)[C@H]1O)OC(=O)CCCCCCCCCCCCCCC [PIP3]
Kd [1]: 120 ± 9 nM

B1: LRH-1 LBD (protein)
chain: SIPHLILELLKCEPDEPQVQAKIMAYLQQEQANRSKHEKLSTFGLMCKMADQTLFSIVEWARSSIFFRELKVDDQMKLLQNCWSELLILDHIYRQVVHGKEGSIFLVTGQQVDYSIIASQAGATLNNLMSHAQELVAKLRSLQFDQREFVCLKFLVLFSLDVKNLENFQLVEGVQEQVNAALLDYTMCNYPQQTEKFGQLLLRLPEIRAISMQAEEYLYYKHLNGDVPYNNLLIEMLHAK
Kd (DAX-1 140-154): 90 nM
